Data reported in ChEMBL document CHEMBL3397029, “Development of potent dopamine-norepinephrine uptake inhibitors (DNRIs) based on a (2S,4R,5R)-2-benzhydryl-5-((4-methoxybenzyl)amino)tetrahydro-2H-pyran-4-ol molecular template” (Bioorg Med Chem, 2015).

Assays:
[1] = target: Norepinephrine transporter (Rattus norvegicus, UniProt Q9WTR4); assay: Inhibition of [ring 2,5,6-3H]dopamine reuptake in rat cerebral cortex NET; assay type: tissue-based
[2] = target: Sodium-dependent dopamine transporter (Rattus norvegicus, UniProt P23977); assay: Inhibition of [ring 2,5,6-3H]dopamine reuptake in rat striatum DAT; assay type: tissue-based
Sodium-dependent dopamine transporter, sequence (P23977 whole entry): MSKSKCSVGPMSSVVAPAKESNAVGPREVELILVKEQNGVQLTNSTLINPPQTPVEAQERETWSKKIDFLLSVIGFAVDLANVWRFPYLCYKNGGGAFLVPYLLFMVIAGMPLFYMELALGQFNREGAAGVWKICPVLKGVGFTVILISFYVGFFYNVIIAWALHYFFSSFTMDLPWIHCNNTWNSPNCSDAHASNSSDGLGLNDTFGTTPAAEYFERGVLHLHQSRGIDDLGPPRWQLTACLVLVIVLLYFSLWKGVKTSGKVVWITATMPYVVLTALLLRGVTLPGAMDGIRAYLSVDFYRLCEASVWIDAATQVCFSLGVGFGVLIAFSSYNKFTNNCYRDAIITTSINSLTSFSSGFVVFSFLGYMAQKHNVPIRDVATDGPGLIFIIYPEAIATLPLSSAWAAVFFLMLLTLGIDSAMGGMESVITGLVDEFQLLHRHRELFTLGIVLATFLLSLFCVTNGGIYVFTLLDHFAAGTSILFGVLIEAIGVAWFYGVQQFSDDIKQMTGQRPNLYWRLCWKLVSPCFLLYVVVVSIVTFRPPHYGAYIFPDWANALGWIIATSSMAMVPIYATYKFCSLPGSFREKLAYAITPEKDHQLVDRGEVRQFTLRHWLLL

[3] = target: Sodium-dependent serotonin transporter (Rattus norvegicus, UniProt P31652); assay: Inhibition of [1,2-3H]serotonin reuptake in rat cerebral cortex SERT; assay type: tissue-based
Sodium-dependent serotonin transporter, sequence (P31652 whole entry): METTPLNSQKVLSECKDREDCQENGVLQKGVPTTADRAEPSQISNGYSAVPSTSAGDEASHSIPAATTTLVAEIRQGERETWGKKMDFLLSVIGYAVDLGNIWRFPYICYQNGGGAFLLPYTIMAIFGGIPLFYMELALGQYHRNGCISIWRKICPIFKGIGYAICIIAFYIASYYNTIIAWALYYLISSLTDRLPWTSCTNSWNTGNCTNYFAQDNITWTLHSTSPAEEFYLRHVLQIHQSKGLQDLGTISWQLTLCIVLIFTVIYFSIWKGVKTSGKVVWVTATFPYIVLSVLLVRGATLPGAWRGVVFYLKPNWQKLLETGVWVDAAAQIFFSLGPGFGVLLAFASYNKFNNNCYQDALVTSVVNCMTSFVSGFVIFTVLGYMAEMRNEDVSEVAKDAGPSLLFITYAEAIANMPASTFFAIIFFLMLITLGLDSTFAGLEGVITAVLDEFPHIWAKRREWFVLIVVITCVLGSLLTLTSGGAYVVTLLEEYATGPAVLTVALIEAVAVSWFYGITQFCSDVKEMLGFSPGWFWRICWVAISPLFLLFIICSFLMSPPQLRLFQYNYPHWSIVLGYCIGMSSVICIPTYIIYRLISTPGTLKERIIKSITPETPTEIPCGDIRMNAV

Rattus norvegicus [4] = organism: Rattus norvegicus; assay: Selectivity ratio of Ki for rat cerebral cortex NET to Ki for rat cerebral cortex SERT
[5] = target: Sodium-dependent serotonin transporter (Rattus norvegicus) (UniProt P31652); assay: Ratio of fluoxetine Ki to compound Ki for rat cerebral cortex SERT; assay type: tissue-based
Sodium-dependent serotonin transporter (Rattus norvegicus), sequence (P31652 whole entry): as above

Rattus norvegicus [6] = organism: Rattus norvegicus; assay: Selectivity ratio of Ki for rat striatum DAT to Ki for rat cerebral cortex SERT; assay type: tissue-based

Norepinephrine transporter, sequence (Q9WTR4 whole entry): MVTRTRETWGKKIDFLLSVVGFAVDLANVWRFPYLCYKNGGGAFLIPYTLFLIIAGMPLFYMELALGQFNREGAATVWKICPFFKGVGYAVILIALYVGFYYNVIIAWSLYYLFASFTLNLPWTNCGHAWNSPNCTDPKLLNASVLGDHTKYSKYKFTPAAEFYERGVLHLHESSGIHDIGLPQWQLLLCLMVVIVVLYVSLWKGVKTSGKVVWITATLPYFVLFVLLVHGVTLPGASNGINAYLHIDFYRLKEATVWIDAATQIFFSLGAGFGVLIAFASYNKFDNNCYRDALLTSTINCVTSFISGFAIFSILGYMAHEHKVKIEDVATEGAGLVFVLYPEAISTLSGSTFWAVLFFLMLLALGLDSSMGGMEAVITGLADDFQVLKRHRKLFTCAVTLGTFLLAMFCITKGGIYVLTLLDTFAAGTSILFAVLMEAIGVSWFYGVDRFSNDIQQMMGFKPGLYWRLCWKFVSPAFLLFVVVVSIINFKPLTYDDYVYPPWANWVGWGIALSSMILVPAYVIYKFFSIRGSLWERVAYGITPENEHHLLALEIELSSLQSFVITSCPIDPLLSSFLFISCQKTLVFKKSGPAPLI

Row | Structure (SMILES) | Ki [1] [µM] | Ki [3] [µM] | also measured
1 | COc1cc(CN[C@@H]2CO[C@H](C(c3ccc(F)cc3)c3ccc(F)cc3)C[C@H]2O)ccc1O | 0.00476 |  | 
2 | Oc1ccc(CN[C@@H]2CO[C@H](C(c3ccc(F)cc3)c3ccc(F)cc3)C[C@H]2O)cc1F | 0.00737 |  | Ki [2]: 0.0131 µM
3 | COc1cc(O)cc(CN[C@@H]2CO[C@H](C(c3ccc(F)cc3)c3ccc(F)cc3)C[C@H]2O)c1 | 0.00491 |  | 
4 | Oc1ccc(CN[C@H]2CC[C@@H](C(c3ccc(F)cc3)c3ccc(F)cc3)OC2)cc1 | 0.0134 | 0.334 | 
5 | COc1ccc(CN[C@@H]2CO[C@H](C(c3ccccc3)c3ccccc3)C[C@H]2O)cc1F | 0.0416 | 0.00902 | Ki [2]: 0.0482 µM
6 | c1ccc(C(c2ccccc2)[C@@H]2CC[C@H](NCc3ccc4occc4c3)CO2)cc1 | 0.0252 |  | Ratio Ki (Rattus norvegicus [4]): 35; Ratio Ki [5]: 20; Ratio Ki (Rattus norvegicus [6]): 115
7 | COc1ccc(CN[C@@H]2CO[C@H](C(c3ccccc3)c3ccccc3)C[C@H]2O)c(F)c1 | 0.00933 | 0.064 | Ki [2]: 0.0518 µM
8 | COc1cc(O)cc(CN[C@@H]2CO[C@H](C(c3ccccc3)c3ccccc3)C[C@H]2O)c1 | 0.0442 |  | 
9 | COc1cccc(CN[C@@H]2CO[C@H](C(c3ccccc3)c3ccccc3)C[C@H]2O)c1 | 0.00585 |  | 
10 | Oc1cc(O)cc(CN[C@@H]2CO[C@H](C(c3ccccc3)c3ccccc3)C[C@H]2O)c1 | 0.152 |  | 
11 | COc1ccc(CN[C@@H]2CO[C@H](C(c3ccccc3)c3ccccc3)C[C@H]2O)cn1 | 0.0381 | 0.0422 | Ki [2]: 0.0441 µM

More lines, main results first:

Row | Ki [1] [µM] | Structure (SMILES) | Ki [3] [µM] | also measured
12 | 0.0302 | COc1ccc(CN[C@@H]2CO[C@H](C(c3ccccc3)c3ccccc3)C[C@H]2O)cc1O |  | 
13 | 0.0102 | O[C@@H]1C[C@@H](C(c2ccc(F)cc2)c2ccc(F)cc2)OC[C@H]1NCc1ccc2c(c1)OCO2 | 0.4 | 
14 | 0.0336 | O[C@@H]1C[C@@H](C(c2ccccc2)c2ccccc2)OC[C@H]1NCc1ccc2occc2c1 |  | 
15 | 0.0258 | O[C@@H]1C[C@@H](C(c2ccc(F)cc2)c2ccc(F)cc2)OC[C@H]1NCc1ccc2c(c1)CCO2 |  | 
16 | 0.0337 | COc1cc(CN[C@@H]2CO[C@H](C(c3ccccc3)c3ccccc3)C[C@H]2O)ccc1O | 0.223 | 
17 | 0.0265 | O[C@@H]1C[C@@H](C(c2ccc(F)cc2)c2ccc(F)cc2)OC[C@H]1NCc1ccc2occc2c1 |  | 
18 | 0.0288 | COc1cccc(CN[C@@H]2CO[C@H](C(c3ccc(F)cc3)c3ccc(F)cc3)C[C@H]2O)c1 |  | 
19 | 0.0284 | COc1ccc(CN[C@@H]2CO[C@H](C(c3ccc(F)cc3)c3ccc(F)cc3)C[C@H]2O)cn1 |  | 
